Where a name gives a salt, the structure may show the parent alone. Read-outs that look alike come from different tables or passages of the source.
How the values were obtained:
[1] = system: Staphylococcus aureus; assay: Broth microdilution MIC; format: cell-based; conditions: for MIC: Staphylococcus aureus, read-out: MIC
Method: Bacterial Isolates. Organisms tested in this study are listed in Table P. Clinical isolates consisted of 5 Staphylococcus aureus (MSSA), 3 Staphylococcus aureus (HA-MRSA), 2 Staphylococcus aureus (CA-MRSA), 2 Enterococcus faecalis (VSE), 2 Streptococcus pyogenes, and 2 Escherichia coli (susceptible to most antibiotics). S. aureus ATCC 29213, E. faecalis ATCC 29212, S. pneumoniae ATCC 49619, and E. coli ATCC 25922 were tested for the purposes of quality control.
Minimal Inhibitory Concentrations (MIC) values against the selected isolates were determined using the reference broth microdilution method according to the Clinical Laboratory Standards Institute (CLSI) guidelines.
The MIC was read and recorded as the lowest concentration of drug that inhibited visible growth of the organism.

[2] = Stability to gamma irradiation; format: physicochemical
Excerpt: There was no change in appearance and it remained partially crystalline over 1 month at all storage conditions.

MIC ([1]; ATCC29213, S. aureus ATCC 29213): 4 µg/mL
MIC ([1]; MRSA, S. aureus 3083, HA-MRSA): 4 µg/mL
MIC ([1]; MRSA, S. aureus 3086, HA-MRSA): 16 µg/mL
MIC ([1]; MRSA, S. aureus 3265, HA-MRSA): 16 µg/mL
MIC ([1]; MSSA, S. aureus 3104, MSSA): > 16 µg/mL
MIC ([1]; MSSA, S. aureus 3107, MSSA): 8 µg/mL
MIC ([1]; MSSA, S. aureus 3245, MSSA): 16 µg/mL
MIC ([1]; MSSA, S. aureus 3250, MSSA): 8 µg/mL
MIC ([1]; MSSA, S. aureus 3856, MSSA): 16 µg/mL
MIC ([1]; S. aureus 2168, CAMRSA): 4 µg/mL
MIC ([1]; S. aureus 2294, CAMRSA): 16 µg/mL
stability to gamma irradiation exposure ([2]; 28.6-30.9 kGy): stable to gamma irradiation
stability to gamma irradiation ([2]; crystalline, 25 to 31 kGy): stable to gamma irradiation
Compound: Cc1c(CN(C)C(=O)/C=C/c2cnc3c(c2)CCC(=O)N3COP(=O)(O)O)oc2ccccc12 [Compound 10, (E)-6-[(N-methyl-((3-methylbenzofuran-2-yl)methyl)amino)-3-oxoprop-1-en-1-yl)-2-oxo-3,4-dihydro-1,8-naphthyridin-1(2H)-yl]methylphosphate bis-ethanolammonium salt]
times less activity than Compound Z ([1]; panel of 11 S. aureus strains): 500-4000 times
